Among the data in article PMC6934184, “Selective DNA-PKcs inhibition extends the therapeutic index of localized radiotherapy and chemotherapy” (The Journal of Clinical Investigation, 2019) are inhibition values, retold here.

The assay deals with T1, CDK9/cyclin K (Homo sapiens, UniProt P50750).
T1 construct: purchased Thermo Fisher Scientific (Life Technologies) SelectScreen
Nature of the assay: SelectScreen LanthaScreen. To be noted: read-out: % displacement. The class given is binding. The method, boiled down: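 NU5455 was profiled across the SelectScreen Broad panel of kinase activity and binding assays. Z'LYTE reactions such as CSF1R ran at apparent Km ATP, while the Adapta CAMK1 assay used ATP listed as 10. Values are given as percent.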
A general note: Time-resolved FRET reads energy transfer from a long-lived donor to a nearby acceptor.

T1 sequence (P50750 whole entry): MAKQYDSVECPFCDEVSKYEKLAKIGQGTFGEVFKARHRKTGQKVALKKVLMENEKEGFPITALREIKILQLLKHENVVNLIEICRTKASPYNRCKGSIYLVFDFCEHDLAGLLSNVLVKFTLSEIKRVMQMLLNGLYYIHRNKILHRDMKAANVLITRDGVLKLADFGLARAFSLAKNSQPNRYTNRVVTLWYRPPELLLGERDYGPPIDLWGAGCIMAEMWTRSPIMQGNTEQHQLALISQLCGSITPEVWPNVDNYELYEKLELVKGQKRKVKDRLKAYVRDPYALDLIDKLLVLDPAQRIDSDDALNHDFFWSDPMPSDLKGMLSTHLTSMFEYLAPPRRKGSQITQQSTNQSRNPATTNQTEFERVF
T1 sequence (O75909 whole entry partner): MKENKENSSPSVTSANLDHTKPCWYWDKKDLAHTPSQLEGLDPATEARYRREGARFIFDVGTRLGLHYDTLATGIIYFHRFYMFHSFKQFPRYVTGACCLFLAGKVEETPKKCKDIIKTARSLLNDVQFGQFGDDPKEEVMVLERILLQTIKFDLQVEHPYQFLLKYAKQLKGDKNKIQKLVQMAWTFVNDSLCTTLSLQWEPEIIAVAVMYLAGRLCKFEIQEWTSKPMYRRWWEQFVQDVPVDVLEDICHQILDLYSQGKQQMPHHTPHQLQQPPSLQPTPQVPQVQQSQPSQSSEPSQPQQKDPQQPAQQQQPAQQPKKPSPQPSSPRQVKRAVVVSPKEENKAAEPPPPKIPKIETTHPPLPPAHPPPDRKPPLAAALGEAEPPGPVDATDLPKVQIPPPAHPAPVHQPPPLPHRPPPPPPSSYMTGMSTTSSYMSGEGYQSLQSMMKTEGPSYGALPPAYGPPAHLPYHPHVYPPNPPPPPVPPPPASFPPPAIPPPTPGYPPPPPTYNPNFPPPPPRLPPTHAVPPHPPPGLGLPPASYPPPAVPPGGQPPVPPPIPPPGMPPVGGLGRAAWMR

For the molecule `CN(C(=O)CN1CCOCC1)c1ccc2sc3c(-c4cccc5c(=O)cc(N6CC7CCC(C6)O7)oc45)cccc3c2c1` [NU5455], the inhibition at 1 µM was determined as 1%.
